The source of these data is patent US20220313698A1, “MODULATORS OF CYSTIC FIBROSIS TRANSMEMBRANE CONDUCTANCE REGULATOR” (Vertex Pharmaceuticals Incorporated, priority 2019, published 2022).

This assay addresses CFTR-mediated chloride transport (Homo sapiens, UniProt P13569). Put plainly: Corrector Assay A - membrane potential dye assay (enteroid cells). The following applies: for EC50: read-out: Corrector Assay A EC50, human intestinal enteroid cells, 18-24 h incubation, acute 10 μM forskolin + 300 nM ivacaftor.
Setting [1] is: % of chloride transport of triple combination control (1 μM (14S)-dispiro macrocycle + 3 μM tezacaftor + 300 nM ivacaftor).

A word on the EC50: it is the concentration giving half of the maximal effect. On to `CC(C)(C)c1ccc2c(n1)N1C[C@@H](CCC(c3cc(Br)ccn3)Nc3cccc(n3)S(=O)(=O)NC2=O)CC1(C)C` (single isomer, unassigned) [Compound 47], for which the EC50 is less than 1000 nM. Moreover, the “Corrector Assay A % activity” value under setting [1] was “++ (++ is 30-60%)”.
The corresponding values for `CC(C)(C)c1ccc2c(n1)N1C[C@@H](CCC(c3cc(N)ccn3)Nc3cccc(n3)S(=O)(=O)NC2=O)CC1(C)C` (single isomer, unassigned) [Compound 48] are 1000 to 3000 nM and “++ (++ is 30-60%)”.
Regarding `CC(C)(C)c1ccc2c(n1)N1C[C@@H](CCC(c3cc(N)ccn3)Nc3cccc(n3)S(=O)(=O)NC2=O)CC1(C)C` (single isomer, unassigned) [Compound 49], the EC50 is less than 1000 nM. Besides, the “Corrector Assay A % activity” value under setting [1] is listed as “++ (++ is 30-60%)”.
The corresponding values for `CC(C)(C)c1ccc2c(n1)N1C[C@@H](CCC(CCC(C3CC3)C3CC3)Nc3cccc(n3)S(=O)(=O)NC2=O)CC1(C)C` (single isomer, unassigned) [Compound 51] are greater than 3000 nM and “+ (+ is <30%)”.
The corresponding values for `CC(C)(C)c1ccc2c(n1)N1C[C@@H](CCC(CCC(C3CC3)C3CC3)Nc3cccc(n3)S(=O)(=O)NC2=O)CC1(C)C` (single isomer, unassigned) [Compound 52] are less than 1000 nM and “++ (++ is 30-60%)”.
The corresponding values for `CC(C)(C)c1ccc2c(n1)N1C[C@@H](CC[C@@H](c3ncccc3Br)Nc3cccc(n3)S(=O)(=O)NC2=O)CC1(C)C` (single isomer, unassigned) [Compound 53] are less than 1000 nM and “+++ (+++ is >60%)”.
With `CC(C)(C)c1ccc2c(n1)N1C[C@@H](CC[C@@H](c3ncccc3Br)Nc3cccc(n3)S(=O)(=O)NC2=O)CC1(C)C` (single isomer, unassigned) [Compound 54], the EC50 is greater than 3000 nM. For the same compound, the “Corrector Assay A % activity” value under setting [1] is “+ (+ is <30%)”.
On to `CC(C)(C)NCc1ccnc([C@@H]2CC[C@@H]3CN(c4nc(C(C)(C)C)ccc4C(=O)NS(=O)(=O)c4cccc(n4)N2)C(C)(C)C3)c1` (single isomer, unassigned) [Compound 61], for which the EC50 was less than 1000 nM. Besides, under setting [1], the “Corrector Assay A % activity” value is recorded as “+++ (+++ is >60%)”.
The corresponding values for `CC(C)(C)NCc1ccnc([C@@H]2CC[C@@H]3CN(c4nc(C(C)(C)C)ccc4C(=O)NS(=O)(=O)c4cccc(n4)N2)C(C)(C)C3)c1` (single isomer, unassigned) [Compound 62] are 1000 to 3000 nM and “++ (++ is 30-60%)”.
The corresponding values for `CC(C)(C)c1ccc2c(n1)N1C[C@@H](CCC(c3ncccc3Cl)Nc3cccc(n3)S(=O)(=O)NC2=O)CC1(C)C` (single isomer, unassigned) [Compound 65] are less than 1000 nM and “++ (++ is 30-60%)”.
Take `CC(C)(C)c1ccc2c(n1)N1C[C@@H](CCC(c3ncccc3Cl)Nc3cccc(n3)S(=O)(=O)NC2=O)CC1(C)C` (single isomer, unassigned) [Compound 66]: the EC50 was greater than 3000 nM. Also, the “Corrector Assay A % activity” value under setting [1] is “+ (+ is <30%)”.
The corresponding values for `CC(C)(C)c1ccc2c(n1)N1C[C@@H](CC[C@@H](c3cc(-c4cn[nH]c4)ccn3)Nc3cccc(n3)S(=O)(=O)NC2=O)CC1(C)C` (single isomer, unassigned) [Compound 68] are less than 1000 nM and “+++ (+++ is >60%)”.
The corresponding values for `CC(C)(C)c1ccc2c(n1)N1C[C@@H](CC[C@@H](c3cc(-c4cn[nH]c4)ccn3)Nc3cccc(n3)S(=O)(=O)NC2=O)CC1(C)C` (single isomer, unassigned) [Compound 69] are less than 1000 nM and “++ (++ is 30-60%)”.
Regarding `CC(C)(C)c1ccc2c(n1)N1C[C@@H](CC[C@@H](c3cc(-c4cc[nH]n4)ccn3)Nc3cccc(n3)S(=O)(=O)NC2=O)CC1(C)C` (single isomer, unassigned) [Compound 73], the EC50 is less than 1000 nM. In addition, the “Corrector Assay A % activity” value under setting [1] is recorded as “+++ (+++ is >60%)”.
The corresponding values for `CC(C)(C)c1ccc2c(n1)N1C[C@@H](CC[C@@H](c3cc(-c4cc[nH]n4)ccn3)Nc3cccc(n3)S(=O)(=O)NC2=O)CC1(C)C` (single isomer, unassigned) [Compound 74] are less than 1000 nM and “++ (++ is 30-60%)”.
The corresponding values for `CC(C)(C)c1ccnc(C2CC[C@@H]3CN(c4nc(C(C)(C)C)ccc4C(=O)NS(=O)(=O)c4cccc(n4)N2)C(C)(C)C3)c1` (single isomer, unassigned) [Compound 75] are less than 1000 nM and “+++ (+++ is >60%)”.
Regarding `CC(C)(C)c1ccnc(C2CC[C@@H]3CN(c4nc(C(C)(C)C)ccc4C(=O)NS(=O)(=O)c4cccc(n4)N2)C(C)(C)C3)c1` (single isomer, unassigned) [Compound 76], the EC50 is less than 1000 nM. Besides, the “Corrector Assay A % activity” value under setting [1] is given as “++ (++ is 30-60%)”.
The corresponding values for `CC(C)(C)c1ccc2c(n1)N1C[C@@H](CC[C@H](c3ccc(C(F)(F)F)cn3)Nc3cccc(n3)S(=O)(=O)NC2=O)CC1(C)C` (single isomer, unassigned) [Compound 80] are less than 1000 nM and “++ (++ is 30-60%)”.
The corresponding values for `CC(C)(C)c1ccc2c(n1)N1C[C@@H](CC[C@@H](c3ccc(C(F)(F)F)cn3)Nc3cccc(n3)S(=O)(=O)NC2=O)CC1(C)C` (single isomer, unassigned) [Compound 81] are less than 1000 nM and “+ (+ is <30%)”.
The corresponding values for `CC(C)(C)c1ccc2c(n1)N1C[C@@H](CCC(c3cc(C(N)=O)ccn3)Nc3cccc(n3)S(=O)(=O)NC2=O)CC1(C)C` (single isomer, unassigned) [Compound 82] are less than 1000 nM and “++ (++ is 30-60%)”.
With `CC(C)(C)c1ccc2c(n1)N1C[C@@H](CCC(c3cc(C(N)=O)ccn3)Nc3cccc(n3)S(=O)(=O)NC2=O)CC1(C)C` (single isomer, unassigned) [Compound 83], the EC50 is less than 1000 nM. The “Corrector Assay A % activity” value under setting [1] is recorded as “++ (++ is 30-60%)”.
Turning to `CC(C)(C)c1ccc2c(n1)N1C[C@@H](CC[C@@H](c3cc(CCN)ccn3)Nc3cccc(n3)S(=O)(=O)NC2=O)CC1(C)C` (single isomer, unassigned) [Compound 84], the EC50 was less than 1000 nM. The “Corrector Assay A % activity” value under setting [1] was “+++ (+++ is >60%)”.
With `CC(C)(C)c1ccc2c(n1)N1C[C@@H](CC[C@@H](c3cc(CCN)ccn3)Nc3cccc(n3)S(=O)(=O)NC2=O)CC1(C)C` (single isomer, unassigned) [Compound 85], the EC50 is less than 1000 nM. Moreover, under setting [1], the “Corrector Assay A % activity” value was “++ (++ is 30-60%)”.
The corresponding values for `CN(C)Cc1ccnc([C@@H]2CC[C@@H]3CN(c4nc(C(C)(C)C)ccc4C(=O)NS(=O)(=O)c4cccc(n4)N2)C(C)(C)C3)c1` (single isomer, unassigned) [Compound 86] are less than 1000 nM and “++ (++ is 30-60%)”.
The corresponding values for `CN(C)Cc1ccnc([C@@H]2CC[C@@H]3CN(c4nc(C(C)(C)C)ccc4C(=O)NS(=O)(=O)c4cccc(n4)N2)C(C)(C)C3)c1` (single isomer, unassigned) [Compound 87] are less than 1000 nM and “+ (+ is <30%)”.
As for `CC(C)(C)c1ccc2c(n1)N1C[C@@H](CC[C@@H](c3cc(C(F)(F)F)ccn3)Nc3cccc(n3)S(=O)(=O)NC2=O)CC1(C)C` (single isomer, unassigned) [Compound 92], the concentration for a half-maximal effect (EC50) is less than 1000 nM. Besides, the “Corrector Assay A % activity” value (given as a number, not a class symbol, % of triple combination control) is listed as 52.5%.
With `CC(C)(C)c1ccc2c(n1)N1C[C@@H](CC[C@H](c3cc(C(F)(F)F)ccn3)Nc3cccc(n3)S(=O)(=O)NC2=O)CC1(C)C` (single isomer, unassigned) [Compound 93], the EC50 is less than 1000 nM. Also, the “Corrector Assay A % activity” value under setting [1] is reported as “+++ (+++ is >60%)”.
The corresponding values for `CC(C)(C)c1ccc2c(n1)N1C[C@@H](CC[C@H](c3cccc(C(F)(F)F)n3)Nc3cccc(n3)S(=O)(=O)NC2=O)CC1(C)C` (single isomer, unassigned) [Compound 94] are less than 1000 nM and “++ (++ is 30-60%)”.
The corresponding values for `CC(C)(C)c1ccc2c(n1)N1C[C@@H](CC[C@@H](c3cccc(C(F)(F)F)n3)Nc3cccc(n3)S(=O)(=O)NC2=O)CC1(C)C` (single isomer, unassigned) [Compound 95] are less than 1000 nM and “++ (++ is 30-60%)”.
The corresponding values for `COC(=O)NCc1ccnc(C2CC[C@@H]3CN(c4nc(C(C)(C)C)ccc4C(=O)NS(=O)(=O)c4cccc(n4)N2)C(C)(C)C3)c1` (single isomer, unassigned) [Compound 107] are less than 1000 nM and “++ (++ is 30-60%)”.
In the case of `COC(=O)NCc1ccnc(C2CC[C@@H]3CN(c4nc(C(C)(C)C)ccc4C(=O)NS(=O)(=O)c4cccc(n4)N2)C(C)(C)C3)c1` (single isomer, unassigned) [Compound 108], the EC50 was less than 1000 nM. Further, the “Corrector Assay A % activity” value under setting [1] was “++ (++ is 30-60%)”.
The corresponding values for `CC(C)(C)c1ccc2c(n1)N1C[C@@H](CCC(c3cc(CCCN)ccn3)Nc3cccc(n3)S(=O)(=O)NC2=O)CC1(C)C` (single isomer, unassigned) [Compound 109] are less than 1000 nM and “+++ (+++ is >60%)”.
The corresponding values for `CC(C)(C)c1ccc2c(n1)N1C[C@@H](CCC(c3cc(CCCN)ccn3)Nc3cccc(n3)S(=O)(=O)NC2=O)CC1(C)C` (single isomer, unassigned) [Compound 110] are greater than 3000 nM and “+ (+ is <30%)”.
The corresponding values for `CC(C)(C)c1ccc2c(n1)N1C[C@@H](CCC(c3cc(CN)ccn3)Nc3cccc(n3)S(=O)(=O)NC2=O)CC1(C)C` (single isomer, unassigned) [Compound 115] are less than 1000 nM and “+++ (+++ is >60%)”.
